Laboratory results from ChEMBL document CHEMBL4706525, “Designing an eEF2K-Targeting PROTAC small molecule that induces apoptosis in MDA-MB-231 cells” (Eur J Med Chem, 2020).
Calls of active or inactive are those of the source. No cut-off for these calls is given here.

Legend:
[1] = target: T1, Protein cereblon/Eukaryotic elongation factor 2 kinase (Homo sapiens) (UniProt O00418+Q96SW2); assay: Protac activity at eEF2K/E3 ubiquitin ligase in human MDA-MB-231 cells assessed as degradation of eEF2K at 200 uM measured after 24 hrs by western blot assay; assay type: cell-based
MDA-MB-231 [2] = assay: Induction of apoptosis in human MDA-MB-231 cells assessed as early apoptotic cells at 200 uM measured after 24 hrs by Annexin V/PI staining based flowcytometry method (reference value: 3.12%); assay type: functional
MDA-MB-231 [3] = assay: Induction of apoptosis in human MDA-MB-231 cells assessed as viable cells at 200 uM measured after 24 hrs by Annexin V/PI staining based flowcytometry method (reference value: 94.63%); assay type: functional; conditions: read-out: Activity
MDA-MB-231 [4] = assay: Induction of apoptosis in human MDA-MB-231 cells assessed as necrotic cells at 100 uM measured after 24 hrs by Annexin V/PI staining based flowcytometry method (reference value: 0.44%); assay type: functional
MDA-MB-231 [5] = assay: Induction of apoptosis in human MDA-MB-231 cells assessed as necrotic cells at 200 uM measured after 24 hrs by Annexin V/PI staining based flowcytometry method (reference value: 0.44%); assay type: functional
MDA-MB-231 [6] = assay: Induction of apoptosis in human MDA-MB-231 cells assessed as late apoptotic cells at 200 uM measured after 24 hrs by Annexin V/PI staining based flowcytometry method (reference value: 1.81%); assay type: functional
MDA-MB-231 [7] = assay: Induction of apoptosis in human MDA-MB-231 cells assessed as necrotic cells at 50 uM measured after 24 hrs by Annexin V/PI staining based flowcytometry method (reference value: 0.44%); assay type: functional
MDA-MB-231 [8] = assay: Induction of apoptosis in human MDA-MB-231 cells assessed as upregulation of Bax expression at 50 to 200 uM measured after 24 hrs by western blot assay; assay type: functional, cell-based; conditions: dose 50-200 µM
MDA-MB-231 [9] = assay: Induction of apoptosis in human MDA-MB-231 cells assessed as viable cells at 50 uM measured after 24 hrs by Annexin V/PI staining based flowcytometry method (reference value: 94.63%); assay type: functional; conditions: read-out: Activity
MDA-MB-231 [10] = assay: Induction of apoptosis in human MDA-MB-231 cells assessed as viable cells at 100 uM measured after 24 hrs by Annexin V/PI staining based flowcytometry method (reference value: 94.63%); assay type: functional; conditions: read-out: Activity
[11] = target: T1, Protein cereblon/Eukaryotic elongation factor 2 kinase (Homo sapiens); assay: Protac activity at eEF2K/E3 ubiquitin ligase in human MDA-MB-231 cells assessed as degradation of eEF2K at 100 uM pretreated with thalidomide for 2 hrs followed by compound addition measured after 8 hrs by western blot assay; assay type: cell-based
MDA-MB-231 [12] = assay: Induction of apoptosis in human MDA-MB-231 cells assessed as decrease in Bcl2 expression at 50 to 200 uM measured after 24 hrs by western blot assay; assay type: functional, cell-based; conditions: dose 50-200 µM
MDA-MB-231 [13] = assay: Induction of apoptosis in human MDA-MB-231 cells assessed as late apoptotic cells at 50 uM measured after 24 hrs by Annexin V/PI staining based flowcytometry method (reference value: 1.81%); assay type: functional
MDA-MB-231 [14] = assay: Induction of apoptosis in human MDA-MB-231 cells assessed as upregulation of cleaved caspase3 expression at 50 to 200 uM measured after 24 hrs by western blot assay; assay type: functional, cell-based; conditions: dose 50-200 µM
MDA-MB-231 [15] = assay: Induction of apoptosis in human MDA-MB-231 cells at 100 uM measured after 24 hrs by Hoechst staining based fluorescence microscopic method; assay type: functional, cell-based
MDA-MB-231 [16] = assay: Induction of apoptosis in human MDA-MB-231 cells assessed as late apoptotic cells at 100 uM measured after 24 hrs by Annexin V/PI staining based flowcytometry method (reference value: 1.81%); assay type: functional
[17] = target: T1, Protein cereblon/Eukaryotic elongation factor 2 kinase (Homo sapiens); assay: Protac activity at eEF2K/E3 ubiquitin ligase in human MDA-MB-231 cells assessed as degradation of eEF2K at 12.5 to 200 uM measured after 24 hrs by western blot assay; assay type: cell-based; conditions: dose 12.5-200 µM
MDA-MB-231 [18] = assay: Induction of apoptosis in human MDA-MB-231 cells assessed as early apoptotic cells at 100 uM measured after 24 hrs by Annexin V/PI staining based flowcytometry method (reference value: 3.12%); assay type: functional
[19] = target: T1, Protein cereblon/Eukaryotic elongation factor 2 kinase (Homo sapiens); assay: Protac activity at eEF2K/E3 ubiquitin ligase in human MDA-MB-231 cells assessed as degradation of eEF2K measured after 24 hrs by western blot assay; assay type: cell-based; conditions: dose 50-200 µM
MCF-10A = assay: Cytotoxicity against human MCF-10A cells; assay type: cell-based
MDA-MB-231 [20] = assay: Induction of apoptosis in human MDA-MB-231 cells assessed as early apoptotic cells at 50 uM measured after 24 hrs by Annexin V/PI staining based flowcytometry method (reference value: 3.12%); assay type: functional
[21] = target: T1, Protein cereblon/Eukaryotic elongation factor 2 kinase (Homo sapiens); assay: Protac activity at eEF2K/E3 ubiquitin ligase in human MDA-MB-231 cells assessed as degradation of eEF2K at 100 uM pretreated with MG-132 for 2 hrs followed by compound addition measured after 8 hrs by western blot assay; assay type: cell-based
MDA-MB-231 [22] = assay: Antiproliferative activity against human MDA-MB-231 cells at 100 uM measured by crystal violet staining based colony forming assay; assay type: functional, cell-based
[23] = target: T1, Protein cereblon/Eukaryotic elongation factor 2 kinase (Homo sapiens); assay: Protac activity at eEF2K/E3 ubiquitin ligase in human MDA-MB-231 cells assessed as degradation of p-eEF2K measured after 24 hrs by western blot assay; assay type: cell-based; conditions: dose 50-200 µM
[24] = target: T2, Eukaryotic elongation factor 2 kinase (Homo sapiens, UniProt O00418); assay: Inhibition of eEF2K (unknown origin)
T2 sequence (O00418 whole entry): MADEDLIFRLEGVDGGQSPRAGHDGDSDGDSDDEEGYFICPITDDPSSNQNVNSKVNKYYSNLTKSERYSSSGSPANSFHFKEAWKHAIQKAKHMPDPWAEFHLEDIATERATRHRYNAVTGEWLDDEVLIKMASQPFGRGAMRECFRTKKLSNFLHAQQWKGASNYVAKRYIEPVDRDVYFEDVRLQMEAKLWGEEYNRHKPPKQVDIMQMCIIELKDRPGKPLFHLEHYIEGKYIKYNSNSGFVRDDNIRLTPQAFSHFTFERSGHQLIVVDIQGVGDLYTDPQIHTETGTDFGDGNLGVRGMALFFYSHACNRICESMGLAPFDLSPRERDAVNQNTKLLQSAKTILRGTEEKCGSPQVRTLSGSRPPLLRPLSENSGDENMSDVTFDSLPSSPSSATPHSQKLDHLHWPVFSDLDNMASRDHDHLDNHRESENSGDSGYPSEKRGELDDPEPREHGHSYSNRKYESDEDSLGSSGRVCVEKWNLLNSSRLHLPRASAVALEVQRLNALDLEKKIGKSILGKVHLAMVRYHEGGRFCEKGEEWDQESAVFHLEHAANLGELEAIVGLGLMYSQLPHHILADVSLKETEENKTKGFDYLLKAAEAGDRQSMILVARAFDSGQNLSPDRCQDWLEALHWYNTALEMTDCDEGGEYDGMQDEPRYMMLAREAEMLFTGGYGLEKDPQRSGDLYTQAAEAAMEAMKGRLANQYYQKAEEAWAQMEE

MDA-MB-231 [25] = assay: Effect on eEF2K expression in human MDA-MB-231 cells at 10 uM measured after 2 hrs by western blot assay; assay type: functional, cell-based

T1 sequence (Q96SW2 whole entry, looked up, one chain of several): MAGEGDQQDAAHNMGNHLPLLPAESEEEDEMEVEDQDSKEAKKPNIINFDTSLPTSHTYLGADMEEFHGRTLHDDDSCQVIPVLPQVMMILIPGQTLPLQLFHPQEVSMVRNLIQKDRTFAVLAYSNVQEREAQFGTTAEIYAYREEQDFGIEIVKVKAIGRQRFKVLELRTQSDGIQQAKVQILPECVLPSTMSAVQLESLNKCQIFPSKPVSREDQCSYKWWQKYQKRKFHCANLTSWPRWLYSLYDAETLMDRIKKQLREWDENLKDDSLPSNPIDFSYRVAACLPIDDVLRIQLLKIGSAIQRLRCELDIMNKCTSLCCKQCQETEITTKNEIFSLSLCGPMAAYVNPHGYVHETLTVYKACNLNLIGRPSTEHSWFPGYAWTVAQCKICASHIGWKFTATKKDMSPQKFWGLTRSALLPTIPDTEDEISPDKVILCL

NC(=O)c1cc2c(=O)n(CC(=O)NCCOCCNC(=O)COc3cccc4c3C(=O)N(C3CCC(=O)NC3=O)C4=O)c(=O)n(C3CC3)c2cc1N (configuration not stated)
Activity [1]: inactive

CCn1c(=O)n(CC(=O)NCCCCCCNc2cccc3c2C(=O)N(C2CCC(=O)NC2=O)C3=O)c(=O)c2cc(C(N)=O)c(N)nc21 (configuration not stated)
Activity [1]: 20%

CCn1c(=O)n(CC(=O)NCCNC(=O)COc2cccc3c2C(=O)N(C2CCC(=O)NC2=O)C3=O)c(=O)c2cc(C(N)=O)c(N)nc21 (configuration not stated)
Activity [1]: 10%

CCn1c(=O)n(CC(=O)NCCNc2cccc3c2C(=O)N(C2CCC(=O)NC2=O)C3=O)c(=O)c2cc(C(N)=O)c(N)nc21 (configuration not stated)
Activity [1]: inactive

NC(=O)c1cc2c(=O)n(CC(=O)NCCCCNC(=O)COc3cccc4c3C(=O)N(C3CCC(=O)NC3=O)C4=O)c(=O)n(C3CC3)c2nc1N (configuration not stated)
Activity [1]: inactive

NC(=O)c1cc2c(=O)n(CC(=O)NCCCCCCNC(=O)COc3cccc4c3C(=O)N(C3CCC(=O)NC3=O)C4=O)c(=O)n(C3CC3)c2nc1N (configuration not stated)
Activity [1]: inactive

NC(=O)c1cc2c(=O)n(CC(=O)NCCCCNc3cccc4c3C(=O)N(C3CCC(=O)NC3=O)C4=O)c(=O)n(C3CC3)c2nc1N (configuration not stated)
Activity [1]: inactive

CCn1c(=O)n(CC(=O)NCCCCNc2cccc3c2C(=O)N(C2CCC(=O)NC2=O)C3=O)c(=O)c2cc(C(N)=O)c(N)nc21 (configuration not stated)
Activity [1]: 35%

NC(=O)c1cc2c(=O)n(CC(=O)NCCNC(=O)COc3cccc4c3C(=O)N(C3CCC(=O)NC3=O)C4=O)c(=O)n(C3CC3)c2nc1N (configuration not stated)
Activity [1]: inactive

CCn1c(=O)n(CC(=O)NCCOCCNC(=O)COc2cccc3c2C(=O)N(C2CCC(=O)NC2=O)C3=O)c(=O)c2cc(C(N)=O)c(N)nc21 (configuration not stated)
Activity (MDA-MB-231 [2]): 24.72% | viability at 200 µM (MDA-MB-231 [3]): 67.6% | Activity (MDA-MB-231 [4]): 0.68% | Activity (MDA-MB-231 [5]): 1.57% | Activity (MDA-MB-231 [6]): 6.12% | Activity (MDA-MB-231 [7]): 1.6% | Activity (MDA-MB-231 [8]): Active | viability at 50 µM (MDA-MB-231 [9]): 89.9% | viability at 100 µM (MDA-MB-231 [10]): 84.4% | Activity [11]: inactive | Activity (MDA-MB-231 [12]): Active | Activity (MDA-MB-231 [13]): 3.24% | Activity (MDA-MB-231 [14]): Active | Activity [1]: 56.7% | Activity (MDA-MB-231 [15]): Active | Activity (MDA-MB-231 [16]): 7.38% | Activity [17]: Active | Activity (MDA-MB-231 [18]): 7.51% | Activity [19]: Active | Activity (MCF-10A): Toxic | Activity (MDA-MB-231 [20]): 5.29% | Activity [21]: inactive | Activity (MDA-MB-231 [22]): Active | Activity [23]: Active

NC(=O)c1cc2c(=O)n(CC(=O)NCCCCCNc3cccc4c3C(=O)N(C3CCC(=O)NC3=O)C4=O)c(=O)n(C3CC3)c2cc1N (configuration not stated)
Activity [1]: inactive

NC(=O)c1cc2c(=O)n(CC(=O)NCCOCCNc3cccc4c3C(=O)N(C3CCC(=O)NC3=O)C4=O)c(=O)n(C3CC3)c2cc1N (configuration not stated)
Activity [1]: inactive

Cc1ccc(C2=NC(C)(O)CC(C(C)C)[Se]2)cc1 (configuration not stated)
IC50 [24]: 0.31 µM

CCn1c(=O)n(CC(=O)NCCCCCCNC(=O)COc2cccc3c2C(=O)N(C2CCC(=O)NC2=O)C3=O)c(=O)c2cc(C(N)=O)c(N)nc21 (configuration not stated)
Activity [1]: 35.3%

NC(=O)c1cc2c(=O)n(CC(=O)NCCCCCNC(=O)COc3cccc4c3C(=O)N(C3CCC(=O)NC3=O)C4=O)c(=O)n(C3CC3)c2cc1N (configuration not stated)
Activity [1]: inactive

O=C1CCC(N2C(=O)c3ccccc3C2=O)C(=O)N1 (configuration not stated)
Activity (MDA-MB-231 [25]): inactive

CCn1c(=O)n(CC(=O)NCCCCCNC(=O)COc2cccc3c2C(=O)N(C2CCC(=O)NC2=O)C3=O)c(=O)c2cc(C(N)=O)c(N)cc21 (configuration not stated)
Activity [1]: 32%

NC(=O)c1cc2c(=O)n(CC(=O)NCCCNc3cccc4c3C(=O)N(C3CCC(=O)NC3=O)C4=O)c(=O)n(C3CC3)c2nc1N (configuration not stated)
Activity [1]: inactive

N#CC1=C(N)SC(N)=C(C#N)C1c1ccccc1F
IC50 [24]: 60 µM

NC(=O)c1cc2c(=O)n(CC(=O)NCCNc3cccc4c3C(=O)N(C3CCC(=O)NC3=O)C4=O)c(=O)n(C3CC3)c2nc1N (configuration not stated)
Activity [1]: inactive

CCn1c(=O)n(CC(=O)NCCCCNC(=O)COc2cccc3c2C(=O)N(C2CCC(=O)NC2=O)C3=O)c(=O)c2cc(C(N)=O)c(N)nc21 (configuration not stated)
Activity [1]: 26%

CCn1c(=O)n(CC(=O)NCCCNC(=O)COc2cccc3c2C(=O)N(C2CCC(=O)NC2=O)C3=O)c(=O)c2cc(C(N)=O)c(N)cc21 (configuration not stated)
Activity [1]: 15.4%

NC(=O)c1cc2c(=O)n(CC(=O)NCCCNC(=O)COc3cccc4c3C(=O)N(C3CCC(=O)NC3=O)C4=O)c(=O)n(C3CC3)c2cc1N (configuration not stated)
Activity [1]: inactive

CCn1c(=O)n(CC(=O)NCCOCCNc2cccc3c2C(=O)N(C2CCC(=O)NC2=O)C3=O)c(=O)c2cc(C(N)=O)c(N)cc21 (configuration not stated)
Activity [1]: 15%

CCn1c(=O)n(CC(=O)NCCCNc2cccc3c2C(=O)N(C2CCC(=O)NC2=O)C3=O)c(=O)c2cc(C(N)=O)c(N)nc21 (configuration not stated)
Activity [1]: 20%

CCn1c(=O)c2cc(C(N)=O)c(N)nc2n(C2CC2)c1=O
Activity (MDA-MB-231 [15]): Active | Activity (MDA-MB-231 [22]): Active

NC(=O)c1cc2c(=O)n(CC(=O)NCCCCCCNc3cccc4c3C(=O)N(C3CCC(=O)NC3=O)C4=O)c(=O)n(C3CC3)c2nc1N (configuration not stated)
Activity [1]: inactive

CCn1c(=O)n(CC(=O)NCCCCCNc2cccc3c2C(=O)N(C2CCC(=O)NC2=O)C3=O)c(=O)c2cc(C(N)=O)c(N)cc21 (configuration not stated)
Activity [1]: 24%
